Experimental data: paper PMC11213865, “Mechanisms contributing to inhibition of retinal ganglion cell death by cell permeable peptain-1 under glaucomatous stress” (Cell Death Discovery, 2024)
No end group written: not given here.

Assays:
[1] = tested on: Human retinal endothelial cells; experiment: Cell penetration and retention, western blot with anti-P1 monoclonal antibody; assay type: in vitro ADME; settings: 16 h; for intracellular concentration (level of P1 in cells, densitometry relative to β-actin): cell uptake, 100 µM peptide, serum-free DMEM/F12 (low glucose), cell lysate, western blot with anti-P1 monoclonal antibody, mean ± SEM, n = 3
Description: Fig. 1 Conjugation with CPP increases the cell permeability of P1. A Human retinal endothelial cells were treated with vehicle (CONT), P1 or CPP-P1 (100 µM). Following incubation for 16 h, the levels of P1 in cells were detected by western blotting using an anti-P1 monoclonal antibody. Densitometric analysis was performed relative to β-actin levels (n = 3). Data represented as mean ± SEM, One-way ANOVA followed by Tukey’s multiple comparisons test, ***p < 0.001, ns-not significant. The entire western blot image is shown in Supplementary Figure 1. B Human retinal explants comparing the difference in neuroprotective efficacy of P1 with and without the CPP. C Representative images, RBPMS, Scale bar = 100 µm.
Human retinal endothelial cells were incubated with vehicle, P1, or CPP-P1 (100 µM) in serum-free DMEM/F12 (low glucose) medium for 16 h. Cells were treated with 1X RIPA buffer containing protease inhibitor cocktail and cell lysates were prepared. Western blot was performed using an anti-P1 monoclonal antibody with β-actin as the loading control (n = 3).

RGC = settings: accumulates within RGC somas in a time-dependent manner; cited from earlier work

Row | Sequence | intracellular concentration (level of P1 in cells, densitometry relative to β-actin) [1] | RGC permeability (RGC) | cell permeability of CPP-P1 relative to P1 ([1]; 100 µM, human retinal endothelial cells, western blot)
1 | DRFSVNLDVKHFSPEELKVK [P1] | 0.23 ± 0.01 | RGC-permeable | 
2 | VPTLKDRFSVNLDVKHFSPEELKVK [CPP-P1] | 1.41 ± 0.17 |  | approximately seven
